Data on eight compounds can be found in ChEMBL document CHEMBL1136828, “Macrocyclic inhibitors of the bacterial cell wall biosynthesis enzyme MurD” (Bioorg Med Chem Lett, 2003).

By IC50 is commonly meant the midpoint of a concentration-inhibition curve. Low readings indicate greater potency, high ones weaker potency.

The assay can be described thus: Inhibitory activity against enzyme MurD isolated from Escherichia coli.

In turn, `C[C@@H]1NC(=O)CCCCCC[C@@H](C(=O)O)NC(=O)[C@H](C)NC1=O` registered an IC50 of 5.1 µM.

On to `C[C@@H]1NC(=O)[C@H](CO)NC(=O)CCCCCC[C@H](C(=O)O)NC1=O`, for which half-maximal inhibition (IC50) required 0.7 µM.

On to `C[C@@H]1NC(=O)[C@H](COC(C)(C)C)NC(=O)CCCCCC[C@@H](C(=O)O)NC1=O`, for which the half-maximal inhibitory concentration (IC50) was determined as 9 µM.

`C[C@@H]1NC(=O)CCCCCCC[C@H](C(=O)O)NC(=O)[C@H](C)NC1=O` displayed an IC50 of 1.5 µM.

The compound `C[C@@H]1NC(=O)[C@H](COC(C)(C)C)NC(=O)CCCCCC[C@H](C(=O)O)NC1=O` registered an IC50 of 1.9 µM.

In the case of `C[C@@H]1NC(=O)CCCCCCC[C@@H](C(=O)O)NC(=O)[C@H](C)NC1=O`, the concentration for half-maximal inhibition (IC50) turned out to be 3.2 µM.

Compound `C[C@@H]1NC(=O)CCCCCC[C@H](C(=O)O)NC(=O)[C@H](C)NC1=O` returned an IC50 of 1.5 µM.

For the compound `C[C@@H]1NC(=O)[C@H](CO)NC(=O)CCCCCC[C@@H](C(=O)O)NC1=O`, the IC50 worked out at 2.3 µM.
